Results reported in patent publication US20060030616A1, “Anhydride modified cantharidin analogues useful in the treatment of cancer” (priority 1998, published 2006).

Tests used:
L1210 cells = experiment: Cell cycle analysis, flow cytometry of propidium iodide stained cells; type: cell-based, murine; conditions: for Cell Cycle Distribution, G1 / Cell Cycle Distribution, G2 + M / Cell Cycle Distribution, S / Cell Cycle Distribution, sub G1 / Cell cycle remark: 12 h; for Cell cycle response: L1210, 12 h exposure
Experimental: The cells are fixed in 70% ethanol and stored at −20° C. until analysis is performed (1-2 weeks). After fixing, the cells are pelleted and incubated in PBS containing propidium iodide ([…]) and RNase A (200 mg/ml) for at least 30 min at room temperature. The samples (2×10^4 events) are analysed using a Becton Dickson FACScan, fluorescence is collected in fluorescence detector 2 (FL2), filter 575/30 nm band pass. Cell cycle distribution is assessed using Cell Quest software (Becton Dickson).
The ability of the protein phosphatase inhibitors to abrogate the G1 or G2 checkpoint of the cell cycle may be determined by cell cycle analysis using flow cytometry. Briefly, asynchronous cell cultures are harvested 18 h after 6 Gy irradiation and/or 12 h incubation with the protein phosphatase inhibitor. Depending upon the p53 status of the cell line, radiation treatment alone will induce arrest in either G1 and/or G2 phase of the cell cycle.
Data shown in Table 2 and FIG. 4 show the cell cycle response of L1210, HL60, HT29 and HCT116 cells to cantharidin and the new cantharidin analogues MK-2 and MK-4 after 12 h exposure. In summary, cantharidin and MK-2 produced a similar response and induced G2 arrest in all four cell lines tested. […] HL60 and HCT116 cells. […] The magnitude of the cell cycle arrest induced by these drugs directly correlated with their cytotoxicity in the respective cell lines. […] The cytotoxicity of the […]

A2780 cells = experiment: MTT cytotoxicity assay, 72 h; type: cell-based, human; conditions: A2780, p53 wt; read-out: IC50 (mean ± SE) after 72 h continuous exposure
Outline: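 L1210 cells were seeded at 1000 cells/well, other lines at 2000-25000 cells/well, and grown 24 h before treatment. Phosphatase inhibitors were then applied in triplicate for 72 h. MTT formazan absorbance was read at 540 nm, and IC50 was taken from dose-response curves of OD change between day 0 and day 3.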

HCT116 cells = experiment: Checkpoint abrogation after 6 Gy radiation, flow cytometry; type: cell-based, human; conditions: 12 h after drug; for Cell Cycle Distribution, G1 / Cell Cycle Distribution, G2 + M / Cell Cycle Distribution, S / Cell Cycle Distribution, sub G / Checkpoint remark: 18 h after 6Gy; for Checkpoint abrogation: HCT116, 6 Gy
HL60 cells = experiment: as above; type: cell-based, human; conditions: 12 h after drug; for Cell Cycle Distribution, G1 / Cell Cycle Distribution, G2 + M / Cell Cycle Distribution, S / Cell Cycle Distribution, sub G / Checkpoint remark: 18 h after 6Gy; for Checkpoint abrogation: HL60, 6 Gy

SMILES: O=C1OC(=O)C2C3C=CC(O3)C12 (stereo not drawn) [MK-2]
- Cell Cycle Distribution, G1 (L1210 cells; L1210, 50 μM): 42.7 percentage of total
- Cell Cycle Distribution, G2 + M (L1210 cells; L1210, 50 μM): 31.7 percentage of total
- Cell Cycle Distribution, S (L1210 cells; L1210, 50 μM): 26.2 percentage of total
- Cell Cycle Distribution, sub G1 (L1210 cells; L1210, 50 μM): 0.3 percentage of total
- Cell Cycle Distribution, G1 (L1210 cells; L1210, 100 μM): 45.2 percentage of total
- Cell Cycle Distribution, G2 + M (L1210 cells; L1210, 100 μM): 32.4 percentage of total
- Cell Cycle Distribution, S (L1210 cells; L1210, 100 μM): 22.4 percentage of total
- Cell Cycle Distribution, sub G1 (L1210 cells; L1210, 100 μM): 0.6 percentage of total
- Cell Cycle Distribution, G1 (L1210 cells; L1210, 250 μM): 46.7 percentage of total
- Cell Cycle Distribution, G2 + M (L1210 cells; L1210, 250 μM): 36.7 percentage of total
- Cell Cycle Distribution, S (L1210 cells; L1210, 250 μM): 14.3 percentage of total
- Cell Cycle Distribution, sub G1 (L1210 cells; L1210, 250 μM): 2.4 percentage of total
- Cell Cycle Distribution, G1 (L1210 cells; L1210, 500 μM): 26.3 percentage of total
- Cell Cycle Distribution, G2 + M (L1210 cells; L1210, 500 μM): 60.0 percentage of total
- Cell Cycle Distribution, S (L1210 cells; L1210, 500 μM): 10.1 percentage of total
- Cell Cycle Distribution, sub G1 (L1210 cells; L1210, 500 μM): 3.9 percentage of total
- Cell cycle remark (L1210 cells; L1210, 500 μM): G2 arrest
- Cell cycle response (L1210 cells): G2 arrest
- IC50 (A2780 cells): 157 ± 9 µM
- Cell Cycle Distribution, G1 (HCT116 cells; HCT116, 5 μM): 30.8 percentage of total
- Cell Cycle Distribution, G2 + M (HCT116 cells; HCT116, 5 μM): 57.2 percentage of total
- Cell Cycle Distribution, S (HCT116 cells; HCT116, 5 μM): 7.9 percentage of total
- Cell Cycle Distribution, sub G (HCT116 cells; HCT116, 5 μM): 3.7 percentage of total
- Cell Cycle Distribution, G1 (HCT116 cells; HCT116, 50 μM): 32.8 percentage of total
- Cell Cycle Distribution, G2 + M (HCT116 cells; HCT116, 50 μM): 57.3 percentage of total
- Cell Cycle Distribution, S (HCT116 cells; HCT116, 50 μM): 6.3 percentage of total
- Cell Cycle Distribution, sub G (HCT116 cells; HCT116, 50 μM): 3.3 percentage of total
- Cell Cycle Distribution, G1 (HCT116 cells; HCT116, 100 μM): 29.9 percentage of total
- Cell Cycle Distribution, G2 + M (HCT116 cells; HCT116, 100 μM): 59.6 percentage of total
- Cell Cycle Distribution, S (HCT116 cells; HCT116, 100 μM): 7.2 percentage of total
- Cell Cycle Distribution, sub G (HCT116 cells; HCT116, 100 μM): 3.1 percentage of total
- Cell Cycle Distribution, G1 (HCT116 cells; HCT116, 250 μM): 23.9 percentage of total
- Cell Cycle Distribution, G2 + M (HCT116 cells; HCT116, 250 μM): 65.4 percentage of total
- Cell Cycle Distribution, S (HCT116 cells; HCT116, 250 μM): 4.3 percentage of total
- Cell Cycle Distribution, sub G (HCT116 cells; HCT116, 250 μM): 6.2 percentage of total
- Cell Cycle Distribution, G1 (HCT116 cells; HCT116, 500 μM): 15.4 percentage of total
- Cell Cycle Distribution, G2 + M (HCT116 cells; HCT116, 500 μM): 73.0 percentage of total
- Cell Cycle Distribution, S (HCT116 cells; HCT116, 500 μM): 4.9 percentage of total
- Cell Cycle Distribution, sub G (HCT116 cells; HCT116, 500 μM): 6.4 percentage of total
- Checkpoint remark (HCT116 cells; HCT116, 500 μM): G1 abrogation
- Checkpoint abrogation (HCT116 cells): abrogated radiation induced G1 arrest
- Cell Cycle Distribution, G1 (HL60 cells; HL60, 50 μM): 6.1 percentage of total
- Cell Cycle Distribution, G2 + M (HL60 cells; HL60, 50 μM): 85.5 percentage of total
- Cell Cycle Distribution, S (HL60 cells; HL60, 50 μM): 2.8 percentage of total
- Cell Cycle Distribution, sub G (HL60 cells; HL60, 50 μM): 5.9 percentage of total
- Cell Cycle Distribution, G1 (HL60 cells; HL60, 100 μM): 6.1 percentage of total
- Cell Cycle Distribution, G2 + M (HL60 cells; HL60, 100 μM): 85.4 percentage of total
- Cell Cycle Distribution, S (HL60 cells; HL60, 100 μM): 3.3 percentage of total
- Cell Cycle Distribution, sub G (HL60 cells; HL60, 100 μM): 5.5 percentage of total
- Cell Cycle Distribution, G1 (HL60 cells; HL60, 250 μM): 5.4 percentage of total
- Cell Cycle Distribution, G2 + M (HL60 cells; HL60, 250 μM): 83.9 percentage of total
- Cell Cycle Distribution, S (HL60 cells; HL60, 250 μM): 2.8 percentage of total
- Cell Cycle Distribution, sub G (HL60 cells; HL60, 250 μM): 8.1 percentage of total
- Cell Cycle Distribution, G1 (HL60 cells; HL60, 500 μM): 4.4 percentage of total
- Cell Cycle Distribution, G2 + M (HL60 cells; HL60, 500 μM): 80.0 percentage of total
- Cell Cycle Distribution, S (HL60 cells; HL60, 500 μM): 4.1 percentage of total
- Cell Cycle Distribution, sub G (HL60 cells; HL60, 500 μM): 11.8 percentage of total
- Checkpoint remark (HL60 cells; HL60, 500 μM): Cell Death
- Checkpoint abrogation (HL60 cells): abrogated radiation induced G1 arrest

SMILES: O=C1OC(O)C2C3CCC(O3)C12 (stereo not drawn) [MK-4]
- Cell Cycle Distribution, G1 (L1210 cells; L1210, 50 μM): 42.0 percentage of total
- Cell Cycle Distribution, G2 + M (L1210 cells; L1210, 50 μM): 32.0 percentage of total
- Cell Cycle Distribution, S (L1210 cells; L1210, 50 μM): 26.9 percentage of total
- Cell Cycle Distribution, sub G1 (L1210 cells; L1210, 50 μM): 0.5 percentage of total
- Cell Cycle Distribution, G1 (L1210 cells; L1210, 100 μM): 43.2 percentage of total
- Cell Cycle Distribution, G2 + M (L1210 cells; L1210, 100 μM): 32.5 percentage of total
- Cell Cycle Distribution, S (L1210 cells; L1210, 100 μM): 25.4 percentage of total
- Cell Cycle Distribution, sub G1 (L1210 cells; L1210, 100 μM): 0.4 percentage of total
- Cell Cycle Distribution, G1 (L1210 cells; L1210, 250 μM): 45.7 percentage of total
- Cell Cycle Distribution, G2 + M (L1210 cells; L1210, 250 μM): 30.5 percentage of total
- Cell Cycle Distribution, S (L1210 cells; L1210, 250 μM): 24.6 percentage of total
- Cell Cycle Distribution, sub G1 (L1210 cells; L1210, 250 μM): 0.5 percentage of total
- Cell Cycle Distribution, G1 (L1210 cells; L1210, 500 μM): 47.5 percentage of total
- Cell Cycle Distribution, G2 + M (L1210 cells; L1210, 500 μM): 33.9 percentage of total
- Cell Cycle Distribution, S (L1210 cells; L1210, 500 μM): 18.6 percentage of total
- Cell Cycle Distribution, sub G1 (L1210 cells; L1210, 500 μM): 1.1 percentage of total
- Cell cycle remark (L1210 cells; L1210, 500 μM): Slight Δ
- Cell cycle response (L1210 cells): G2 arrest
- IC50 (A2780 cells): 333 ± 55 µM
- Cell Cycle Distribution, G1 (HCT116 cells; HCT116, 50 μM): 26.7 percentage of total
- Cell Cycle Distribution, G2 + M (HCT116 cells; HCT116, 50 μM): 61.3 percentage of total
- Cell Cycle Distribution, S (HCT116 cells; HCT116, 50 μM): 5.8 percentage of total
- Cell Cycle Distribution, sub G (HCT116 cells; HCT116, 50 μM): 6.3 percentage of total
- Cell Cycle Distribution, G1 (HCT116 cells; HCT116, 100 μM): 18.4 percentage of total
- Cell Cycle Distribution, G2 + M (HCT116 cells; HCT116, 100 μM): 69.3 percentage of total
- Cell Cycle Distribution, S (HCT116 cells; HCT116, 100 μM): 9.7 percentage of total
- Cell Cycle Distribution, sub G (HCT116 cells; HCT116, 100 μM): 3.3 percentage of total
- Cell Cycle Distribution, G1 (HCT116 cells; HCT116, 250 μM): 16.3 percentage of total
- Cell Cycle Distribution, G2 + M (HCT116 cells; HCT116, 250 μM): 67.8 percentage of total
- Cell Cycle Distribution, S (HCT116 cells; HCT116, 250 μM): 8.2 percentage of total
- Cell Cycle Distribution, sub G (HCT116 cells; HCT116, 250 μM): 8.2 percentage of total
- Cell Cycle Distribution, G1 (HCT116 cells; HCT116, 500 μM): 13.1 percentage of total
- Cell Cycle Distribution, G2 + M (HCT116 cells; HCT116, 500 μM): 61.9 percentage of total
- Cell Cycle Distribution, S (HCT116 cells; HCT116, 500 μM): 10.6 percentage of total
- Cell Cycle Distribution, sub G (HCT116 cells; HCT116, 500 μM): 14.9 percentage of total
- Checkpoint remark (HCT116 cells; HCT116, 500 μM): G1 abrogation
- Checkpoint abrogation (HCT116 cells): abrogated G1 arrest
- Cell Cycle Distribution, G1 (HL60 cells; HL60, 50 μM): 6.2 percentage of total
- Cell Cycle Distribution, G2 + M (HL60 cells; HL60, 50 μM): 82.3 percentage of total
- Cell Cycle Distribution, S (HL60 cells; HL60, 50 μM): 2.8 percentage of total
- Cell Cycle Distribution, sub G (HL60 cells; HL60, 50 μM): 8.9 percentage of total
- Cell Cycle Distribution, G1 (HL60 cells; HL60, 100 μM): 6.2 percentage of total
- Cell Cycle Distribution, G2 + M (HL60 cells; HL60, 100 μM): 80.8 percentage of total
- Cell Cycle Distribution, S (HL60 cells; HL60, 100 μM): 3.4 percentage of total
- Cell Cycle Distribution, sub G (HL60 cells; HL60, 100 μM): 9.8 percentage of total
- Cell Cycle Distribution, G1 (HL60 cells; HL60, 250 μM): 5.8 percentage of total
- Cell Cycle Distribution, G2 + M (HL60 cells; HL60, 250 μM): 82.2 percentage of total
- Cell Cycle Distribution, S (HL60 cells; HL60, 250 μM): 3.1 percentage of total
- Cell Cycle Distribution, sub G (HL60 cells; HL60, 250 μM): 9.3 percentage of total
- Cell Cycle Distribution, G1 (HL60 cells; HL60, 500 μM): 5.2 percentage of total
- Cell Cycle Distribution, G2 + M (HL60 cells; HL60, 500 μM): 78.2 percentage of total
- Cell Cycle Distribution, S (HL60 cells; HL60, 500 μM): 5.4 percentage of total
- Cell Cycle Distribution, sub G (HL60 cells; HL60, 500 μM): 11.6 percentage of total
- Checkpoint remark (HL60 cells; HL60, 500 μM): Cell Death
- Checkpoint abrogation (HL60 cells): abrogated G1 arrest
